This note sets out measurements from patent US11371994B2, “Phosphorylated Akt-specific capture agents, compositions, and methods of using and making” (California Institute of Technology, priority 2013, dated 2022).

Square brackets hold non-standard residues; d marks the D form. Ends that are not written are not given here. dPra = C#CC[C@@H](N)C(=O)O

One assay deals with mouse anti His6 antibody and anti mouse-alkaline phosphatase. The assay is described as follows: Elimination of peptide binders to antibody, on-bead BCIP colour test. The following applies: colour intensity of beads; clear beads are not background binders. In kind it is binding. The procedure: Since a preclear screen was not performed against the mouse-Anti His6 antibody and the anti-mouse-alkaline phosphatase antibody, to eliminate peptide binders to the antibodies, all the dark colored peptide hits obtained in the earlier target screen were synthesized on Tentagel-S—NH2 resin. 10 beads of each sequence was taken in spinnex tubes, equilibrated in binding buffer, and then treated with a 1:1000 diluted solution of mouse anti His6 antibody (Abcam) for an hour at 4° C. Following three five minute washes with the binding buffer, a 1:10,000 diluted solution of anti mouse-alkaline phosphatase was added and the shaken for one hour at 4° C. The beads were washed three times for five minutes each with wash buffer 3, followed by three five minute washes with wash buffer 4. The beads were then developed in BCIP solution for thirty minutes and quenched with 0.1 N HCl. The color intensity of the different sequences is recorded in Table 5, along with the probability that the sequence is a binder to the protein and not a background binder (clear beads). The probability arises from the poor resolution of certain amino acid standards in the Edman sequencer during sequencing the hits from the N terminal triligand target screen.
Turning to “(D-Pra)-ssGry ([dPra][dS][dS]G[dR][dY]) [SEQ ID NO: 14, on-bead 3° peptide hit of N-tL screen]”, the Color result is “No color”.

As for “(D-Pra)-yyrfG ([dPra][dY][dY][dR][dF]G) [SEQ ID NO: 13, on-bead 3° peptide hit of N-tL screen]”, the Color result is recorded as “No color”. As for “SEQ ID NO: 52: on-bead peptide D-Pra-yvyrf, hit of N-tL screen ([dPra][dY][dV][dY][dR][dF])”, the Color entry is given as “light”.

As to “SEQ ID NO: 53: on-bead peptide D-Pra-sfrrf, hit of N-tL screen ([dPra][dS][dF][dR][dR][dF])”, the Color result was “light”. Same read-out and setting: in the case of “SEQ ID NO: 58: on-bead peptide D-Pra-rriyy, hit of N-tL screen ([dPra][dR][dR][dI][dY][dY])” it was “dark”; in that of “SEQ ID NO: 60: on-bead peptide D-Pra-kfqfr, hit of N-tL screen ([dPra][dK][dF][dQ][dF][dR])”, “light”; in that of “SEQ ID NO: 61: on-bead peptide D-Pra-lfqfr, hit of N-tL screen ([dPra][dL][dF][dQ][dF][dR])”, “light”. Turning to “SEQ ID NO: 62: on-bead peptide D-Pra-kftfr, hit of N-tL screen ([dPra][dK][dF][dT][dF][dR])”, the Color result is on record as “light”. For the compound “SEQ ID NO: 63: on-bead peptide D-Pra-lftfr, hit of N-tL screen ([dPra][dL][dF][dT][dF][dR])”, the Color result is “light”. Consider “SEQ ID NO: 64: on-bead peptide D-Pra-rdrfr, hit of N-tL screen ([dPra][dR][dD][dR][dF][dR])”, for which the Color result was “No color”. For “SEQ ID NO: 65: on-bead peptide D-Pra-rnrfr, hit of N-tL screen ([dPra][dR][dN][dR][dF][dR])”, the Color entry was “medium”.

The target in another assay is T1, Akt (Homo sapiens, UniProt P31751).
T1 construct: endogenous in cells; host or cells: OVCAR3
T1 sequence (P31751 whole entry): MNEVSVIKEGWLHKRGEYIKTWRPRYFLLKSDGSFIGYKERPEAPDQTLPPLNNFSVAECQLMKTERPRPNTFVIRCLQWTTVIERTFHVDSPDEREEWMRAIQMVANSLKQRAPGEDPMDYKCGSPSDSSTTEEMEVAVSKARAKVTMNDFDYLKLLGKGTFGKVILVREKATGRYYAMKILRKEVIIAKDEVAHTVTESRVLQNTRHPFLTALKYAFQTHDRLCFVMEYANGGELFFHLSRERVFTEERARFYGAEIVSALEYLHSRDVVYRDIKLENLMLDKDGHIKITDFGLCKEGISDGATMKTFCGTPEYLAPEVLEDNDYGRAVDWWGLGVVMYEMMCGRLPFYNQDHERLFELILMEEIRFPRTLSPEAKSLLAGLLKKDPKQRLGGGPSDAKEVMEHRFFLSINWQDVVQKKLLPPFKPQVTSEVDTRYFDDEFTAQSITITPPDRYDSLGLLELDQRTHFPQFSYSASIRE
The assay is described as follows: OVCAR3 lysate pull-down (immunoprecipitation) assay. It counts as binding. The following applies: eluents stained with pan-Akt antibody. The procedure: OVCAR3 cells (ATCC) were grown in RPMI-1640 media containing 20% fetal bovine serum. Passage three cells were grown to ˜80% confluence. Cells were lysed with lysis buffer (10 mM Tris-Cl (pH=7.5), 100 mM NaCl, 1% (v/v) Triton X-100, 0.1% SDS (w/v), 0.5% deoxycholate, 1 mM DTT, 1 mM EDTA, 1× PhosStop phosphatase inhibitors (Roche), 1× Complete protease inhibitors (Roche)) and the amount of protein measured using BCA Protein Assay Kit (Pierce Biotechnologies, Inc). Streptavidin-agarose resin solution (EMD) was swelled in TBST (25 mM tris chloride, pH=7.5, 150 mM NaCl, 0.05% Tween-20). Each of the biotinylated ligands was immobilized on the Streptavidin-agarose resin by adding 7.2 μL of 1 mM ligand stock (DMSO) to 10 μL of the swelled streptavidin-agarose resin. For the blank control, the resin was treated with 7.2 μL of 1 mM biotinylated acyl glycine. […] After shaking overnight at 4° C., 50 μM D-biotin was added to the resin to block any remaining sites. The resin was washed with TBST five times, for fifteen minutes each. The resin was then swelled in binding buffer for two hours. To each of the immobilized ligands, 200 μL OVCAR3 cell lysate (1.9 mg/ml) was added. The tubes were shaken at 4° C. for 18 hours. The beads were extensively washed, three times for fifteen minutes in binding buffer, three times (fifteen minutes) in TBST, and three times (fifteen minutes) in TBS to remove unbound proteins. The resin bound proteins were eluted by adding 40 μL of 2×SDS-PAGE sample loading buffer (BioRad) and heating at 95° C. for five minutes. A 1:10 diluted sample of lysate in sample loading buffer was prepared by mixing 1 μL of the sample with 9 μL sample loading buffer and denaturing the sample by heating at 95° C. for five minutes. 10 μL of each sample was loaded on a 12% SDS-PAGE gels (BioRad) and run for 80 minutes at 110 volts. Three identical gels were loaded and run at the same time. One gel was used for Coomassie staining with Coomassie Fluor Orange Protein Gel Stain (Molecular Probes) following the manufacturer's protocol. The two other gels were transferred to nitrocellulose membranes by the semidry transfer method, blocked for two hours at 4° C. with 5% non-fat milk, and treated overnight at 4° C. with a 1:1000 dilution of pan-Akt rabbit monoclonal antibody (Cell Signaling Technology) and a 1:1000 dilution of pS473 Akt rabbit monoclonal antibody (Cell Signaling Technology), respectively, in 0.5% non-fat milk. The membranes were washed and treated for an hour with a 1:10,000 dilution of monoclonal mouse anti-rabbit-HRP secondary antibody (Cell Signaling Technology) in 0.5% milk. After five washes of five minutes each with TBST and one wash of five minutes with TBS, the blots were developed with West Dura ECL substrate (Thermo Scientific) and imaged on film.
As for `CC(=O)NC(CCCCn1cc(C[C@@H](NC(C)=O)C(=O)N[C@H](Cc2c[nH]c3ccccc23)C(=O)N[C@H](CCCCN)C(=O)N[C@@H](C(=O)N[C@H](CCCCN)C(=O)N[C@H](CC(C)C)C(N)=O)C(C)C)nn1)C(=O)NCCOCCOCCOCCC(=O)NCCNC(=O)CCCC[C@@H]1SC[C@@H]2NC(=O)N[C@@H]21` (stereo partly shown) [mono-L], the “immunoprecipitation of Akt from OVCAR3 cell lysate” value (from here on “immunoprecipitation of Akt”) was “sufficient selectivity to immunoprecipitate Akt from OVCAR3 cancer cell lysate”. “Bi5: biligand candidate with hnGii-(D-Pra) as the 2° peptide arm (peptide 1 [dPra][dW][dK][dV][dK][dL]; peptide 2 [dH][dN]G[dI][dI][dPra]; not fully specified (bridges))”: the “immunoprecipitation of Akt” value was “did not show any Akt pulldown”. Same read-out and setting: to “Bi6: biligand candidate with hnGGd-(D-Pra) as the 2° peptide arm (peptide 1 [dPra][dW][dK][dV][dK][dL]; peptide 2 [dH][dN]GG[dD][dPra]; not fully specified (bridges))” belongs “did not show any Akt pulldown”; to “N-tri2: N terminal triligand candidate: (D-Pra)-ssGry clicked to anchor-3N (peptide 1 [dW][dK][dV][dK][dL]; peptide 2 [dH][dN]G[dY][dF]; peptide 3 [dPra][dS][dS]G[dR][dY]; not fully specified (bridges); also: arms clicked by triazole to anchor-3N scaffold (not listed))”, “immunoprecipitate Akt2 from OVCAR3 cells”.

The same assay, now with this note: eluents stained with pan-Akt antibody; listed as Bi2.
For `CC(=O)NC(CCCCn1cc(C[C@@H](NC(=O)CCCCn2cc(C[C@@H](NC(=O)[C@@H](Cc3ccccc3)NC(=O)[C@@H](Cc3ccc(O)cc3)NC(=O)CNC(=O)[C@@H](CC(N)=O)NC(=O)[C@H](N)Cc3c[nH]cn3)C(=O)O)nn2)C(=O)N[C@H](Cc2c[nH]c3ccccc23)C(=O)N[C@H](CCCCN)C(=O)N[C@@H](C(=O)N[C@H](CCCCN)C(=O)N[C@H](CC(C)C)C(N)=O)C(C)C)nn1)C(=O)NCCOCCOCCOCCC(=O)NCCNC(=O)CCCC[C@@H]1SC[C@@H]2NC(=O)N[C@@H]21` (stereo partly shown) [bi-L], the “immunoprecipitation of Akt” value was “best candidate”.

Still in this assay, the particulars now being: eluents stained with pan-Akt antibody; listed as biligand.
For `CC(=O)NC(CCCCn1cc(C[C@@H](NC(=O)CCCCn2cc(C[C@@H](NC(=O)[C@@H](Cc3ccccc3)NC(=O)[C@@H](Cc3ccc(O)cc3)NC(=O)CNC(=O)[C@@H](CC(N)=O)NC(=O)[C@H](N)Cc3c[nH]cn3)C(=O)O)nn2)C(=O)N[C@H](Cc2c[nH]c3ccccc23)C(=O)N[C@H](CCCCN)C(=O)N[C@@H](C(=O)N[C@H](CCCCN)C(=O)N[C@H](CC(C)C)C(N)=O)C(C)C)nn1)C(=O)NCCOCCOCCOCCC(=O)NCCNC(=O)CCCC[C@@H]1SC[C@@H]2NC(=O)N[C@@H]21` (stereo partly shown) [bi-L], the “immunoprecipitation of Akt” value is given as “higher selectivity to immunopreciptate Akt from OVCAR3 cell lysate”.

The target of the next assay is Akt2 (Homo sapiens, UniProt P31751). As to the kind of experiment: Single component ELISA, PCC agent as capture or detection agent (relative affinity). It counts as binding. The following applies: relative affinity; read-out: affinity by single-component immunoassay. Further details: purchased Abcam. An excerpt: FIG. 23: A. ELISA assays in which the PCC Agents are utilized as either as surface-localized capture agents (for N-tL, C-tL) or as the detection agent (for mono-L, bi-L). Such assays provide relative affinity measurements, which are given as EC50 values in the key. […] C. C-tL distinguishes the full length Akt2 from isoform proteins Akt1 and Akt3. D. The 32 amino acid long C terminal fragment from Akt2, Akt1 and Akt3. The hydrophobic motif is highlighted in blue. pS refers to phospho-serine. […] F. Selectivity assays: Biotinylated ligands or biotinylated pS473 antibody is immobilized on streptavidin-agarose and treated with OVCAR3 cell lysate. The eluents are stained with a pan-Akt antibody or pS473 Akt antibody.
Chain of Akt2 (P31751 whole entry, the tested form may be a part, canonical isoform): as the sequence (P31751 whole entry) above
1.25 μM biotinylated ligand was prepared by diluting the 1 mM stock in binding buffer (25 mM tris chloride, pH=7.4, 150 mM NaCl, 0.1% BSA, 0.05% Tween 20). The prepared ligand solution or 0.125% DMSO in buffer (buffer control) was immobilized on a High Capacity Streptavidin 96 well plate (Thermo Scientific). After washing away the excess ligand, the plate was blocked overnight with 1% BSA/25 mM tris chloride, pH=7.4/150 mM NaCl, 0.05% Tween 20. 2.5 μM solutions of the His6 (SEQ ID NO:28) tagged target phosphopeptide epitope Akt2 amino acids 450-481, His6 (SEQ ID NO:28) tagged Akt1 amino acids 449-480, His6 (SEQ ID NO:28) tagged Akt3 amino acids 448-479 were added to each of the wells. Following three washes with the binding buffer, the plate was treated for an hour with a 1:1000 dilution of anti His6 (SEQ ID NO:28) mouse monoclonal antibody. A 1:10,000 dilution of goat anti mouse antibody-Horse Radish Peroxide conjugate in binding buffer was added to the wells. The plates were washed four times, five minutes each, with 0.05% Tween 20/TBS (25 mM tris chloride, pH=7.5, 150 mM NaCl) and once with TBS (25 mM tris chloride, pH=7.5, 150 mM NaCl). Color was developed by adding TMB substrate (KPL) to each well. The reaction was quenched with 0.5 M H2SO4. The A450 measured on a 96-well plate reader. The Net A450 was obtained by subtracting the absorbance value for the blank control (no immobilized ligand) from each of the triplicate values obtained for the ligand-epitope interaction. The selectivity assay with full length His6 (SEQ ID NO:28) tagged Akt1, Akt2 and Akt3 was performed following the same protocol, using 25 nM protein instead of 2.5 μM His6 tagged peptide epitope.
With `CC(=O)NC(CCCCn1cc(C[C@@H](NC(=O)CCCCn2cc(C[C@@H](NC(=O)[C@@H](Cc3ccccc3)NC(=O)[C@@H](Cc3ccc(O)cc3)NC(=O)CNC(=O)[C@@H](CC(N)=O)NC(=O)[C@H](N)Cc3c[nH]cn3)C(=O)O)nn2)C(=O)N[C@H](Cc2c[nH]c3ccccc23)C(=O)N[C@H](CCCCN)C(=O)N[C@@H](C(=O)N[C@H](CCCCN)C(=O)N[C@H](CC(C)C)C(N)=O)C(C)C)nn1)C(=O)NCCOCCOCCOCCC(=O)NCCNC(=O)CCCC[C@@H]1SC[C@@H]2NC(=O)N[C@@H]21` (stereo partly shown) [bi-L], the EC50 is around 1 µM. As to `CC(=O)NC(CCCCn1cc(C[C@@H](NC(C)=O)C(=O)N[C@H](Cc2c[nH]c3ccccc23)C(=O)N[C@H](CCCCN)C(=O)N[C@@H](C(=O)N[C@H](CCCCN)C(=O)N[C@H](CC(C)C)C(N)=O)C(C)C)nn1)C(=O)NCCOCCOCCOCCC(=O)NCCNC(=O)CCCC[C@@H]1SC[C@@H]2NC(=O)N[C@@H]21` (stereo partly shown) [mono-L], the EC50 was around 3 µM.
